According to patent publication US20260083865A1, “PROSTATE SPECIFIC MEMBRANE ANTIGEN (PSMA) LIGANDS AND USE THEREOF” (priority 2022, published 2026):
“Also recorded” adds a separate entry of the source. Numbered stars: 1 amine (or outer) side, 2 acyl side, 3 side chain; on linkers, the order of the positions; unused ones are H or OH. Bridge positions count the residues as written; N and C are the ends. Square brackets hold non-standard residues; d marks the D form. Peptide text beside a SMILES is read from it. * marks the point of attachment. DOTA = O=C(O)CN1CCN(CC(=O)O)CCN(CC(=O)*)CCN(CC(=O)O)CC1; Phe(4-Cl) = N[C@@H](Cc1ccc(Cl)cc1)C(=O)O; Arg(Me) = CNC(=N)NCCC[C@H](N)C(=O)O; X1 = O=C(CC1CCN([*:1])CC1)[*:2]; Lys(Me) = CNCCCC[C@H](N)C(=O)O; Tle = CC(C)(C)[C@H](N)C(=O)O; Aib = CC(C)(N)C(=O)O

Tested on: PSMA-expressing ST1273 tumors
Test: Efficacy study in mice with PSMA-expressing ST1273 tumors (tumor volume)
Type: in vivo
Source text: The efficacy of ^177Lu-PSM-0194 (PSM-0194 labeled with radioactive Lutetium-177) was investigated in the PDX tumor model ST1273. […] The ST1273 PDX model was developed at XenoSTART (San Antonio, Texas, USA) and PSMA expression was confirmed by immunohistochemistry.
ST1273 tumor fragments were transplanted subcutaneously at the right flank of female NMRI nu/nu mice. In brief, the parent animals with ST1273 PDX tumors for transplantation were euthanized by cervical dislocation. The tumors were resected and trimmed to remove the connective tissues. The tumors were put in a Petri dish with PBS and cut with a scalpel into pieces of approximately 5×5×5 mm. Recipient mice were anesthetized (isoflurane, 1-3% in ambient air supplemented with 100% O2) and an incision cut in the skin on the back. Room was made for the tumor between the muscle and skin with forceps. The tumor pieces were dipped in PBS before being placed under the skin with forceps. The incision was closed with a 7 mm wound clip. Another incision was cut in the skin on the back, where a testosterone rod was inserted subcutaneously with forceps (PreclinApps, Testosterone MedRod 75 μg/day, drug release duration 100 days). The incision was closed with non-absorbable prolene 5-0 sutures and animals were chipped for identification and allowed to recover from anesthesia. Tumor growth and animal weight were measured twice a week starting 7 days after inoculation. Tumor size was measured by caliper and the volume was estimated using the following formula 0.52×(length×width^2).
6-7 weeks after inoculation, three mice with ST1273 PDX tumors were dosed with ^177Lu-PSM-0194 and were subjected to SPECT/computed tomography scans. Tumor size measurement was continued for 42 days after dosing. In brief, PSM-0194 was labeled with radioactive Lutetium-177 with a molar activity of 30 MBq/nmol. An activity dose of 30 MBq per mouse was injected intravenously. The mice injected with ^177Lu—PSM-0194 underwent SPECT/computed tomography scans at 4, 24, and 72 hours p.i. to evaluate the distribution of ^177Lu-PSM-0194 in different tissues. Regions of interest (ROI) were drawn based on computed tomography images for the tumor and following organs: heart (estimate of blood), kidney (left), kidney (right), and tail. Uptake of ^177Lu-PSM-0194 (% ID/g, decay-corrected) in the corresponding ROI was determined by quantitative imaging analysis. […] Highest uptake in non-tumor organs was found in the kidneys with a favorable tumor-to-kidney ratio of 3.3-3.4.
The tumor size measurements were continued for 42 days after dosing. The effect of therapy ^177Lu—PSM-0194 on the tumor volume was evaluated for each individual mouse. […] Tumor volume continued declining to a nadir on day 20, with a mean tumor volume (MTV) of 16±16 mm^3 (mean SEM). […] For the calculation of relative volumes, the tumor volumes on the day of dosing (day 0) were set to 100%.

With `CNCCCC[C@@H]1NC(=O)[C@@H](NC(=O)[C@H](Cc2ccc(Cl)cc2)NC(=O)C(C)(C)NC(=O)[C@@H](NC(=O)CC2CCN(C(=O)CN3CCN(CC(=O)O)CCN(CC(=O)O)CCN(CC(=O)O)CC3)CC2)[C@@H](C)O)CSSC[C@@H](C(=O)N[C@H](C(=O)N[C@H](C(N)=O)[C@@H](C)O)C(C)(C)C)NC(=O)[C@H](CC(N)=O)NC(=O)C(C)(C)NC(=O)[C@H](CCCNC(=N)NC)NC1=O` [^177Lu-PSM-0194, metal not drawn] ({DOTA}-[X1]T[Aib][Phe(4-Cl)]C[Lys(Me)][Arg(Me)][Aib]NC[Tle]T-NH2; disulfide 5-10) the “effect of therapy on the tumor volume” value (ST1273 PDX mice, 30 MBq i.v., followed 42 days after dosing) was “reduction of the tumor volumes; also recorded: strong tumor regression and sustained tumor suppression”, the “start of re-growth of the tumor” value (animal M10, 30 MBq i.v.) was 23 days and the tumor volume (animal M10, day 42 after dosing, 30 MBq i.v.) was 407 mm^3. The “mean tumor volume (MTV) at nadir” value (day 20 after dosing, 30 MBq i.v., three mice, mean SEM) was 16±16 mm^3, the Tumor volumes (mouse M9, study day 2) was 390 mm^3 and the Relative tumor volume (mouse M9, study day 2, day 0 = 100%) was 112%. It also gave a Tumor volumes (mouse M9, study day 6) of 124 mm^3, a Relative tumor volume (mouse M9, study day 6, day 0 = 100%) of 36% and a Tumor volumes (mouse M9, study day 9) of 65 mm^3. For the same compound, the Relative tumor volume (mouse M9, study day 9, day 0 = 100%) was 19%, the Tumor volumes (mouse M9, study day 13) was 31 mm^3 and the Relative tumor volume (mouse M9, study day 13, day 0 = 100%) was 9.0%. It also gave a Tumor volumes (mouse M9, study day 16) of 43 mm^3, a Relative tumor volume (mouse M9, study day 16, day 0 = 100%) of 12% and a Tumor volumes (mouse M9, study day 20) of 0 mm^3. For the same compound, the Relative tumor volume (mouse M9, study day 20, day 0 = 100%) was 0.0%, the Tumor volumes (mouse M9, study day 23) was 0 mm^3 and the Relative tumor volume (mouse M9, study day 23, day 0 = 100%) was 0.0%. The Tumor volumes (mouse M9, study day 27) was 0 mm^3, the Relative tumor volume (mouse M9, study day 27, day 0 = 100%) was 0.0% and the Tumor volumes (mouse M9, study day 30) was 0 mm^3. The Relative tumor volume (mouse M9, study day 30, day 0 = 100%) was 0.0%, the Tumor volumes (mouse M9, study day 34) was 0 mm^3 and the Relative tumor volume (mouse M9, study day 34, day 0 = 100%) was 0.0%. It also gave a Tumor volumes (mouse M9, study day 37) of 0 mm^3, a Relative tumor volume (mouse M9, study day 37, day 0 = 100%) of 0.0% and a Tumor volumes (mouse M9, study day 41) of 0 mm^3. The Relative tumor volume (mouse M9, study day 41, day 0 = 100%) was 0.0%, the Tumor volumes (mouse M9, study day 42) was 0 mm^3 and the Relative tumor volume (mouse M9, study day 42, day 0 = 100%) was 0.0%. It also gave a Tumor volumes (mouse M10, study day 2) of 633 mm^3, a Relative tumor volume (mouse M10, study day 2, day 0 = 100%) of 134% and a Tumor volumes (mouse M10, study day 6) of 372 mm^3. The Relative tumor volume (mouse M10, study day 6, day 0 = 100%) was 79%, the Tumor volumes (mouse M10, study day 9) was 346 mm^3 and the Relative tumor volume (mouse M10, study day 9, day 0 = 100%) was 73%. It also gave a Tumor volumes (mouse M10, study day 13) of 242 mm^3, a Relative tumor volume (mouse M10, study day 13, day 0 = 100%) of 51% and a Tumor volumes (mouse M10, study day 16) of 94 mm^3. The Relative tumor volume (mouse M10, study day 16, day 0 = 100%) was 20%, the Tumor volumes (mouse M10, study day 20) was 49 mm^3 and the Relative tumor volume (mouse M10, study day 20, day 0 = 100%) was 10%. The Tumor volumes (mouse M10, study day 23) was 66 mm^3, the Relative tumor volume (mouse M10, study day 23, day 0 = 100%) was 14% and the Tumor volumes (mouse M10, study day 27) was 113 mm^3. It also gave a Relative tumor volume (mouse M10, study day 27, day 0 = 100%) of 24%, a Tumor volumes (mouse M10, study day 30) of 114 mm^3 and a Relative tumor volume (mouse M10, study day 30, day 0 = 100%) of 24%. The Tumor volumes (mouse M10, study day 34) was 172 mm^3, the Relative tumor volume (mouse M10, study day 34, day 0 = 100%) was 36% and the Tumor volumes (mouse M10, study day 37) was 289 mm^3. The Relative tumor volume (mouse M10, study day 37, day 0 = 100%) was 61%, the Tumor volumes (mouse M10, study day 41) was 608 mm^3 and the Relative tumor volume (mouse M10, study day 41, day 0 = 100%) was 129%. For the same compound, the Tumor volumes (mouse M10, study day 42) was 607 mm^3, the Relative tumor volume (mouse M10, study day 42, day 0 = 100%) was 129% and the Tumor volumes (mouse M12, study day 2) was 476 mm^3. For the same compound, the Relative tumor volume (mouse M12, study day 2, day 0 = 100%) was 53%, the Tumor volumes (mouse M12, study day 6) was 427 mm^3 and the Relative tumor volume (mouse M12, study day 6, day 0 = 100%) was 47%. It also gave a Tumor volumes (mouse M12, study day 9) of 196 mm^3, a Relative tumor volume (mouse M12, study day 9, day 0 = 100%) of 23% and a Tumor volumes (mouse M12, study day 13) of 82 mm^3. For the same compound, the Relative tumor volume (mouse M12, study day 13, day 0 = 100%) was 9.1%, the Tumor volumes (mouse M12, study day 16) was 109 mm^3 and the Relative tumor volume (mouse M12, study day 16, day 0 = 100%) was 12%. For the same compound, the Tumor volumes (mouse M12, study day 20) was 0 mm^3, the Relative tumor volume (mouse M12, study day 20, day 0 = 100%) was 0.0% and the Tumor volumes (mouse M12, study day 23) was 55 mm^3. The Relative tumor volume (mouse M12, study day 23, day 0 = 100%) was 6.1%, the Tumor volumes (mouse M12, study day 27) was 56 mm^3 and the Relative tumor volume (mouse M12, study day 27, day 0 = 100%) was 6.2%. It also gave a Tumor volumes (mouse M12, study day 30) of 58 mm^3, a Relative tumor volume (mouse M12, study day 30, day 0 = 100%) of 6.4% and a Tumor volumes (mouse M12, study day 34) of 47 mm^3. It also gave a Relative tumor volume (mouse M12, study day 34, day 0 = 100%) of 5.2%, a Tumor volumes (mouse M12, study day 37) of 67 mm^3 and a Relative tumor volume (mouse M12, study day 37, day 0 = 100%) of 7.4%. For the same compound, the Tumor volumes (mouse M12, study day 41) was 74 mm^3, the Relative tumor volume (mouse M12, study day 41, day 0 = 100%) was 8.2% and the Tumor volumes (mouse M12, study day 42) was 81 mm^3. It also gave a Relative tumor volume (mouse M12, study day 42, day 0 = 100%) of 9.0%.
